Assay results published in PubChem BioAssay AID1963853 (Molecular Pharmacology Branch, DTP, NCI, 2024).

Tested on: 266295-075-R-J1-PDC spheroid viability
Assay: Anticancer human tumor 266295-075-R-J1-PDC patient-derived head and neck squamous carcinoma cell line growth inhibition [POLQ]
Settings: spheroids with HUVEC and MSC; for IC50: curve of first compound; for viability, T/C: stronger effect = lower value
In short: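 Growth inhibition in 3D: complex spheroids (tumor PDC, HUVEC, MSC) treated with POLQ inhibitor combinations; where Cmax unknown, highest tested concentration 10 microM, except SN-38 at 1 microM.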

[1] = second compound 0.0316 µM, first compound 0.0316 µM
[2] = second compound 0.0316 µM, first compound 0.1 µM
[3] = second compound 0.0316 µM, first compound 0.316 µM
[4] = second compound 0.0316 µM, first compound 1 µM
[5] = second compound 0.0316 µM, first compound 3.16 µM
[6] = second compound 0.0316 µM, first compound 10 µM
[7] = second compound 0.1 µM, first compound 0.0316 µM
[8] = second compound 0.1 µM, first compound 0.1 µM
[9] = second compound 0.1 µM, first compound 0.316 µM
[10] = second compound 0.1 µM, first compound 1 µM
[11] = second compound 0.1 µM, first compound 3.16 µM
[12] = second compound 0.1 µM, first compound 10 µM
[13] = second compound 0.316 µM, first compound 0.0316 µM
[14] = second compound 0.316 µM, first compound 0.1 µM
[15] = second compound 0.316 µM, first compound 0.316 µM
[16] = second compound 0.316 µM, first compound 1 µM
[17] = second compound 0.316 µM, first compound 3.16 µM
[18] = second compound 0.316 µM, first compound 10 µM
[19] = second compound 1 µM, first compound 0.0316 µM
[20] = second compound 1 µM, first compound 0.1 µM
[21] = second compound 1 µM, first compound 0.316 µM
[22] = second compound 1 µM, first compound 1 µM
[23] = second compound 1 µM, first compound 3.16 µM
[24] = second compound 1 µM, first compound 10 µM
[25] = second compound 3.16 µM, first compound 0.0316 µM
[26] = second compound 3.16 µM, first compound 0.1 µM
[27] = second compound 3.16 µM, first compound 0.316 µM
[28] = second compound 3.16 µM, first compound 1 µM
[29] = second compound 3.16 µM, first compound 3.16 µM
[30] = second compound 3.16 µM, first compound 10 µM
[31] = second compound 10 µM, first compound 0.0316 µM
[32] = second compound 10 µM, first compound 0.1 µM
[33] = second compound 10 µM, first compound 0.316 µM
[34] = second compound 10 µM, first compound 1 µM
[35] = second compound 10 µM, first compound 3.16 µM
[36] = second compound 10 µM, first compound 10 µM
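Also: spheroids exposed to compounds for seven days before readout.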

C=CC(=O)N1CCN(c2nc(=O)n(-c3c(C)ccnc3C(C)C)c3nc(-c4c(O)cccc4F)c(F)cc23)C(C)C1 (stereo unspecified) + Cc1cccc(N(C)C(=O)C2C(O)CCN2c2nc(C)cc(C(F)(F)F)c2C#N)c1
IC50 (second compound 0.0316 µM): > 10 µM | IC50 (second compound 0.1 µM): > 10 µM | IC50 (second compound 0.316 µM): > 10 µM | IC50 (second compound 1 µM): > 10 µM | IC50 (second compound 3.16 µM): > 10 µM | IC50 (second compound 10 µM): > 10 µM | viability, T/C [1]: 95.2% | viability, T/C [2]: 89.3% | viability, T/C [3]: 97% | viability, T/C [4]: 110% | viability, T/C [5]: 140% | viability, T/C [6]: 126% | viability, T/C [7]: 91.5% | viability, T/C [8]: 92.7% | viability, T/C [9]: 96.2% | viability, T/C [10]: 115% | viability, T/C [11]: 123% | viability, T/C [12]: 131% | viability, T/C [13]: 93.6% | viability, T/C [14]: 116% | viability, T/C [15]: 100% | viability, T/C [16]: 126% | viability, T/C [17]: 116% | viability, T/C [18]: 121% | viability, T/C [19]: 91.6% | viability, T/C [20]: 108% | viability, T/C [21]: 112% | viability, T/C [22]: 103% | viability, T/C [23]: 125% | viability, T/C [24]: 130% | viability, T/C [25]: 99.5% | viability, T/C [26]: 105% | viability, T/C [27]: 118% | viability, T/C [28]: 133% | viability, T/C [29]: 126% | viability, T/C [30]: 116% | viability, T/C [31]: 117% | viability, T/C [32]: 108% | viability, T/C [33]: 128% | viability, T/C [34]: 120% | viability, T/C [35]: 132% | viability, T/C [36]: 105%

CC1COCCN1c1cc(C2(O)CC3CCC(C2)O3)c2cnn(-c3ccn[nH]3)c2n1 (stereo unspecified) + Cc1cccc(N(C)C(=O)C2C(O)CCN2c2nc(C)cc(C(F)(F)F)c2C#N)c1
IC50 (second compound 0.0316 µM): 0.839 µM | IC50 (second compound 0.1 µM): 0.872 µM | IC50 (second compound 0.316 µM): 0.92 µM | IC50 (second compound 1 µM): 0.568 µM | IC50 (second compound 3.16 µM): 0.86 µM | IC50 (second compound 10 µM): 0.97 µM | viability, T/C [1]: 84% | viability, T/C [2]: 74.1% | viability, T/C [3]: 61.3% | viability, T/C [4]: 47% | viability, T/C [5]: 36.8% | viability, T/C [6]: 25% | viability, T/C [7]: 86% | viability, T/C [8]: 69.1% | viability, T/C [9]: 76.2% | viability, T/C [10]: 46% | viability, T/C [11]: 37.5% | viability, T/C [12]: 29.7% | viability, T/C [13]: 82.1% | viability, T/C [14]: 74.1% | viability, T/C [15]: 60.6% | viability, T/C [16]: 49% | viability, T/C [17]: 37.6% | viability, T/C [18]: 26.3% | viability, T/C [19]: 94.1% | viability, T/C [20]: 63.6% | viability, T/C [21]: 58.4% | viability, T/C [22]: 45.9% | viability, T/C [23]: 40% | viability, T/C [24]: 26.1% | viability, T/C [25]: 89.5% | viability, T/C [26]: 74% | viability, T/C [27]: 60.3% | viability, T/C [28]: 51.5% | viability, T/C [29]: 34.5% | viability, T/C [30]: 31.1% | viability, T/C [31]: 114% | viability, T/C [32]: 88.8% | viability, T/C [33]: 69.1% | viability, T/C [34]: 49.4% | viability, T/C [35]: 35.2% | viability, T/C [36]: 28.1%

CCc1cc2c(N3CCc4c(cc(Cn5ccnc5)cc4-c4cn(C)nc4C(F)(F)F)C3=O)ccnc2c(OC)n1 + COC1C(OC(N)=O)C(O)C(Oc2ccc3c(O)c(NC(=O)c4ccc(O)c(CC=C(C)C)c4)c(=O)oc3c2C)OC1(C)C
IC50 (second compound 0.0316 µM): > 10 µM | IC50 (second compound 0.1 µM): > 10 µM | IC50 (second compound 0.316 µM): > 10 µM | IC50 (second compound 1 µM): > 10 µM | IC50 (second compound 3.16 µM): > 10 µM | IC50 (second compound 10 µM): > 10 µM | viability, T/C [1]: 88.9% | viability, T/C [2]: 93% | viability, T/C [3]: 119% | viability, T/C [4]: 104% | viability, T/C [5]: 144% | viability, T/C [6]: 132% | viability, T/C [7]: 117% | viability, T/C [8]: 96.8% | viability, T/C [9]: 127% | viability, T/C [10]: 107% | viability, T/C [11]: 114% | viability, T/C [12]: 132% | viability, T/C [13]: 94.8% | viability, T/C [14]: 96.7% | viability, T/C [15]: 95% | viability, T/C [16]: 129% | viability, T/C [17]: 120% | viability, T/C [18]: 115% | viability, T/C [19]: 95.3% | viability, T/C [20]: 80.9% | viability, T/C [21]: 94% | viability, T/C [22]: 102% | viability, T/C [23]: 129% | viability, T/C [24]: 127% | viability, T/C [25]: 100% | viability, T/C [26]: 101% | viability, T/C [27]: 104% | viability, T/C [28]: 117% | viability, T/C [29]: 159% | viability, T/C [30]: 146% | viability, T/C [31]: 90.2% | viability, T/C [32]: 87.7% | viability, T/C [33]: 111% | viability, T/C [34]: 117% | viability, T/C [35]: 145% | viability, T/C [36]: 135%
